Laboratory results as given in patent publication EP0185130A1, “5-Alkoxy-2,4,6-triodo or tribromo-isophthalic-acid derivatives, process for their preparation and X-ray contrast agents containing them” (BRACCO INDUSTRIA CHIMICA Società per Azioni, priority 1984, dated 1986).
≈ marks a conversion by molar mass, not a printed value. Where two headings read alike, the source gives them in different places. Each block holds one compound with its values, some of them ahead of it.

Columns and labels:
[1] = Heat sterilisation of aqueous injection solutions (stability); type: physicochemical; conditions: 120 °C for 30 minutes
Source text: Beispielsweise werden die nach den vorstehenden Beispielen erhaltenen reinen 5-Alkoxy-2,4,6-trijodisopthalsäurediamide unter sterilen Bedingungen in der gewünschten Menge bidestilliertem Wasser gelöst, filtriert, unter Zusatz von geringen Mengen EDTA-Na2 und Puffersubstanzen auf pH 6,9 bis 7,1 eingestellt, in Serumflaschen oder Ampullen abgefüllt und anschliessend sterilisiert.

[2] = Water solubility; type: physicochemical; conditions: for solubility: water, read-out: Wasserlöslichkeit
[3] = result in words, no temperature stated

sterilisieren durch Erhitzen [1]: ohne Schwierigkeiten | Wasserlöslichkeit ([2]; bei 20 °C): > 100 % (g/v)
Compound: 5-(3,6,9-Trioxadecyl)oxy-2,4,6-tribromisophthalsäure-bis(1,3-dihydroxy- isopropylamid) [Beispiel 7]

sterilisieren durch Erhitzen [1]: ohne Schwierigkeiten | Wasserlöslichkeit ([2]; bei Raumtemperatur): > 100 % (g/v)
Compound: 5-(3,6,9-Triuxadecyl)oxy-2,4,6-trijodisophthalsäure-bis(1,3-dihydroxy- isopropylamid) [Beispiel 2]

sterilisieren durch Erhitzen [1]: ohne Schwierigkeiten | solubility ([2]; bei Raumtemperatur): > 1000 mg/mL
Compound: COCCOCCOCCOCCOCCOc1c(I)c(C(=O)NC(CO)CO)c(I)c(C(=O)NC(CO)CO)c1I [Beispiel 3, 5-(3,6,9,12,15-Pentaoxahexadecyl)oxy-2,4,6-trijod-isophthalsäure-bis-(1,3-dihydroxyisopropylamid)]

sterilisieren durch Erhitzen [1]: ohne Schwierigkeiten | solubility ([2]; bei 20 °C): > 1000 mg/mL
Compound: COCCOCCOCCOCCOCCOCCOCCOc1c(I)c(C(=O)NC(CO)CO)c(I)c(C(=O)NC(CO)CO)c1I [Beispiel 4, 5-(3,6,9,12,15,18,21-Heptaoxadocosyl)oxy-2,4,6-trijodisophthalsäure-bis(1,3-dihydroxyisopropylamid)]

sterilisieren durch Erhitzen [1]: ohne Schwierigkeiten | solubility ([2]; bei Raumtemperatur): > 1000 mg/mL
Compound: O=C(NC(CO)CO)c1c(I)c(OCCOCCOCCO)c(I)c(C(=O)NC(CO)CO)c1I [Beispiel 5]

solubility ([2]; bei 20 °C): > 1000 mg/mL
Compound: CN(C[C@H](O)[C@@H](O)[C@H](O)[C@H](O)CO)C(=O)COc1c(Br)c(C(=O)NCC(O)CO)c(Br)c(C(=O)NCC(O)CO)c1Br (some centres unmarked) [Beispiel 38, 5-(N-Methyl-N-2,3,4,5,6-pentahydroxyhexyl)aminocarbonylmethoxy-2,4,6-tribromisophthalsäure-bis(2,3-dihydroxypropylamid)]

solubility ([2]; bei 20 °C): ≥ 1000 mg/mL
Compound: CN(CC(O)CO)C(=O)COc1c(I)c(C(=O)NC(C)(CO)CO)c(I)c(C(=O)NC(C)(CO)CO)c1I (centres unmarked) [Beispiel 39, 5(N-Methyl-N-2,3-dihydroxypropyl)aminocarbonylmethoxy-2,4,6-trijod-isophthalsäure-bis(1,3-dihydroxy-2-methylisopropylamid)]

solubility ([2]; bei 25 °C): > 600 mg/mL
Compound: CCOCCOCCOc1c(I)c(C(=O)N(C)CC(O)CO)c(I)c(C(=O)N(C)CC(O)CO)c1I (centres unmarked) [Beispiel 40, 5-(3,6-Dioxaoctyl)oxy-2,4,6-trijodisophthalsäure-bis(N-methyl-N-2,3-dihydroxypropylamid)]

solubility ([2]; bei Raumtemperatur): > 1000 mg/mL
Compound: CCOCCOCCOc1c(I)c(C(=O)N(CCO)CC(O)CO)c(I)c(C(=O)N(CCO)CC(O)CO)c1I (centres unmarked) [Beispiel 41, 5-(3,6-Dioxaoctyl)oxy-2,4,6-trijodisophthalsäure-bis(N-2-hydroxyethyl-N-2,3-dihydroxypropylamid)]

solubility ([2]; no temperature stated): > 500 mg/mL
Compound: CCOCCOCCOc1c(I)c(C(=O)NCC(O)CO)c(I)c(C(=O)NC(CO)CO)c1I (centres unmarked) [Beispiel 42, 1-(3-(1,3-Dihydroxyisopropylaminocarbonyl)-5-(2,3-dihydroxypropylamino-carbonyl)-2,4,6-trijod-phenoxy)-3,6-dioxaoctan]

Wasserlöslichkeit [2, 3]: Wenig löslich in Wasser
Compound: O=C(NC(CO)CO)c1c(I)c(OCCOCCOCCOc2c(I)c(C(=O)NC(CO)CO)c(I)c(C(=O)NC(CO)CO)c2I)c(I)c(C(=O)NC(CO)CO)c1I [Beispiel 43, 1,8-Bis-(3,5-bis(1,3-dihydroxyisopropylaminocarbonyl)-2,4,6-trijod-phenoxy)-3,6-dioxaoctan]

Wasserlöslichkeit [2, 3]: Wenig löslich in Wasser
Compound: O=C(NCC(O)CO)c1c(I)c(OCCOCCOCCOc2c(I)c(C(=O)NCC(O)CO)c(I)c(C(=O)NCC(O)CO)c2I)c(I)c(C(=O)NCC(O)CO)c1I (centres unmarked) [Beispiel 44, 1,8-Bis-(3,5-bis(2,3-dihydroxypropylaminocarbonyl)-2,4,6-trijod-phenoxy)-3,6-dioxan]

Wasserlöslichkeit [2, 3]: gut wasserlöslich
Compound: O=C(NCC(O)CO)c1c(I)c(OCCOCCOCCOCCOCCOc2c(I)c(C(=O)NCC(O)CO)c(I)c(C(=O)NC(CO)CO)c2I)c(I)c(C(=O)NC(CO)CO)c1I (centres unmarked) [Beispiel 45, 1,14-Bis-(3-(1,3-dihydroxyisopropylaminocarbonyl)-5-(2,3-dihydroxy-propylaminocarbonyl)-2,4,6-trijodphenoxy)-3,6,9,12-tetraoxatetradecan]

Wasserlöslichkeit [2, 3]: kaum löslich in Wasser
Compound: O=C(COc1c(I)c(C(=O)NC(CO)CO)c(I)c(C(=O)NC(CO)CO)c1I)NCCNC(=O)COc1c(I)c(C(=O)NC(CO)CO)c(I)c(C(=O)NC(CO)CO)c1I [Beispiel 46, 1,2-Bis-(3,5-bis(1,3-dihydroxyisopropylaminocarbonyl)-2,4,6-trijod-phenoxy-acetylamino)-ethan]

Wasserlöslichkeit [2, 3]: wasserlöslich
Compound: O=C(COc1c(I)c(C(=O)NC(CO)CO)c(I)c(C(=O)NC(CO)CO)c1I)NCC(O)C(O)CNC(=O)COc1c(I)c(C(=O)NC(CO)CO)c(I)c(C(=O)NC(CO)CO)c1I (centres unmarked) [Beispiel 47, 1,4-Bis-(3,5-bis(1,3-dihydroxyisopropylaminocarbonyl)-2,4,6-trijod-phenoxy-acetylamino)-2,3-dihydroxybutan]

Wasserlöslichkeit [2, 3]: leicht löslich in Wasser
Compound: O=C(COc1c(I)c(C(=O)NCC(O)CO)c(I)c(C(=O)NCC(O)CO)c1I)NC(CO)CO (centres unmarked) [Beispiel 48, 5-(1,3-Dihydroxyisopropylaminocarbonyl)methoxy-2,4,6-trijodisophthal-säure-bis(2,3-dihydroxypropylamid)]

Wasserlöslichkeit [2, 3]: leicht löslich in Wasser
Compound: O=C(COc1c(I)c(C(=O)NC(CO)CO)c(I)c(C(=O)NC(CO)CO)c1I)NCC(O)CO (centres unmarked) [Beispiel 49, 5-(2,3-Dihydroxypropylaminocarbonyl)methoxy-2,4,6-trijodisophthalsäure-bis(1,3-dihydroxyisopropylamid)]

Wasserlöslichkeit [2, 3]: sehr gut wasserlösliche
Compound: COC(=O)[C@@H](C)Oc1c(Br)c(C(=O)NC(CO)CO)c(Br)c(C(=O)NC(CO)CO)c1Br [R(+)-5(1(Methoxycarbonyl)ethoxy)-2,4,6-tribromisophthalsäure-bis(1,3-di-hydroxyisopropylamid)]

solubility ([2]; bei 25 °C): ~800 mg/mL (≈ 1010 mM)
Compound: COC(=O)[C@@H](C)Oc1c(I)c(C(=O)NC(CO)CO)c(I)c(C(=O)NC(CO)CO)c1I [R(+)-5(1(Methoxycarbonyl)ethoxy-IPSA]

Wasserlöslichkeit ([2]; bei 20 °C): 5 % (g/v) | Wasserlöslichkeit ([2]; bei 100 °C): 100 % (g/v)
Compound: R(+)-5-(1(1,3-Dihydroxyisopropylaminocarbonyl)ethoxy)-2,4,6-tribromiso- phthalsäure-bis(1,3-dihydroxyisopropylamid) [Beispiel 13]
